Laboratory results taken from patent US20100247533A1, “TREATMENT WITH A HUMANIZED ANTI-EGFR IgG1 ANTIBODY AND IRINOTECAN” (priority 2009, published 2010).

Experiments:
[1] = test system: A549 lung adenocarcinoma xenografts; assay: Animal survival study in vivo, A549 lung adenocarcinoma xenograft model; set-up: species or system SCID beige mice
Experimental: Partially fucosylated GlycArt-mAb was provided as stock solution (c=11.3 mg/ml), in a buffer containing histidine, trehalose and polysorbate 20. The antibody stock solution was appropriately diluted in PBS prior to injection.
The antibody concentration was adjusted by dilution of the reconstituted stock solution prior to injection.
Irinotecan/CPT-11 (Campto®) was purchased as clinical formulation (20 mg/ml) from Pfizer Pharma GmbH, Karlsruhe, Germany. The antibody concentration was adjusted by dilution of the reconstituted stock solution prior to injection.
A549 human Non Small Cell Lung Cancer (NSCLC) cells were obtained from ATCC. The tumor cell line was routinely cultured in RPMI medium (PAA Laboratories, Austria) supplemented with 10% fetal bovine serum (PAA Laboratories, Austria) and 2 mM L-glutamine, at 37° C. in a water-saturated atmosphere at 5% CO2.
Passage 3 of A549 cells was used for in vivo injection. 2×10^6 cells in PBS were injected intravenously (i.v.).
Female SCID beige mice; age 7-8 weeks at arrival (purchased from Charles River, Sulzfeld, Germany) were maintained under specific pathogen-free conditions with daily cycles of 12 h light/12 h darkness according to committed guidelines (GV-Solas; Felasa; TierschG). […]
The primary parameter was survival. The data was statistically analyzed by log rank test.

[2] = test system: colorectal cancer; conditions: combined with 5-fluorouracil and leucovorin; first-line treatment for colorectal cancer; cited from earlier work

| SMILES | p (log rank test), survival compared to vehicle control ([1]; antibodies 25 mg/kg i.p. every seven days, irinotecan 20 mg/kg i.p. four times, single agents or combinations) | animal survival compared to vehicle control ([1]; single agents, antibodies 25 mg/kg i.p. every seven days (day 7-98), irinotecan 20 mg/kg i.p. day 7, 10, 14, 17, A549 cells injected i.v.) | response rates [2] |
| --- | --- | --- | --- |
| CCc1c2c(nc3ccc(OC(=O)N4CCC(N5CCCCC5)CC4)cc13)-c1cc3c(c(=O)n1C2)COC(=O)[C@]3(O)CC [irinotecan] | 0.017 | significantly prolonged animal survival | – |
| O=C1[O][Pt]2([NH][C@@H]3CCCC[C@H]3[NH]2)[O]C1=O [oxaliplatin] | – | – | 25-40% |
